Source: patent publication US7282589B2, “Acid addition salt of optically active piperidine compound and process for preparing the same” (UBE Industries, Ltd., priority 1996, dated 2007)
Read-outs that look alike come from different tables or passages of the source.

Assays:
[1] = system: histamine-induced death; experiment: Protective effects on histamine-induced death; format: in vivo, Hartley male guinea pigs; conditions: for Survival ratio (%): p.o., 2 hours before 1.25 mg/kg histamine hydrochloride i.v.; for ED50: Cavia porcellus, po, obtained from the dose-response curve of Table 1
Description: By using Hartley male guinea pigs with a body weight of 250 to 550 g, protective effects on histamine-induced death were tested according to the method of Lands et al. (Journal of Pharmacological Experimental Therapy, vol. 95, p. 45, 1949 (A. M. Lands, J. O. Hoppe, O. H. Siegmund, and F. F. Luduena, J. Pharmacol. Exp. Ther., 95, 45 (1949))). Test animals were fasted overnight (about 14 hours), and then 5 ml/kg of a test substance was orally administrated. Two hours after administration of the test substance, 1.25 mg/kg of histamine hydrochloride was intravenously administrated to induce histamine shock. After induction, symptom of the test animals was observed and the histamine-shock appearing time was measured, and termination of respiration or restoration was also observed.

[2] = system: 7 days homologous PCA reaction; experiment: Inhibitory effect on 7 days homologous PCA reaction; format: in vivo, Hartley male guinea pigs; conditions: for Inhibitory ratio (%): p.o., 2 hours before antigen
Description: By using Hartley male guinea pigs with a body weight of 250 to 550 g, inhibitory effect on PCA reaction was tested according to the method of Levine et al. (Journal of Immunology, vol. 106, p. 29, 1971 (B. B. Levine, H. Chang, Jr., and N. M. Vaz, J. Immunol. 106, 29 (1971))). 0.05 ml of guinea pig anti-BPO.BGG-IgE serum diluted 32-fold with a physiological saline was hypodermically administrated to the guinea pig through two points of right and left sandwiching the median line of the back which had been shaved one day before.
After 7 days, 1 ml of a 1% Evans Blue physiological saline solution containing 500 μg of benzylpenicilloyl bovine serum albumin (BPO.BSA) was intravenously administrated to induce a PCA reaction. Thirty minutes later, exsanguination was carried out, and the skin was peeled off and the amount of the leaked dye was measured according to the method of Katayama et al. (Microbiological Immunology, vol. 22, p. 89, 1978 (S. Katayama, H. Shinoya and S. Ohtake, Microbiol. Immunol., 22, 89 (1978))). The test animals were fasted overnight (about 16 hours) and the test substances were orally administrated 2 hours before the administration of the antigen.

[3] = Stability test (40° C. and 75% relative humidity, one month); format: physicochemical; conditions: for physicochemical stability (conclusion in words): from the test results of Table 4
Description: After pulverizing the above-mentioned respective compounds, powder passed through a 500 μm sieve was made to be a test sample. Respective samples were divided and placed in glass Petri dishes and preserved at 40° C. and 75% relative humidity. One month later, the samples were taken out, and a weight of contained analogues and a content of (R)-isomer by racemization were measured and compared with those at the beginning of the test.
The sample was dissolved in a mobile phase and the solution was adjusted so as to contain about 0.1% of the sample per ml. With regard to 25 μl of the sample solution, percentages of the respective peak area were measured by a liquid chromatography using an automatic integration method.
About 5 mg of the sample was dissolved in the mobile phase and the solution was adjusted so as to contain about 0.1% of the sample per ml. With regard to 1.5 μl of the sample solution, percentages of the respective peak area were measured by a liquid chromatography using an automatic integration method, and an amount of the (R)-isomer (%) was calculated by the following equation.
[formula] • Q^S: percentage of peak area of (S)-isomer • Q^R: percentage of peak area of (R)-isomer Operation Conditions

[4] = Experiment 1: crystallization of acid addition salts of (S)-piperidine compound (I); format: physicochemical
Description: (S)-Piperidine compound of the formula (I) was dissolved in an organic solvent, and after adding an acid shown in Table 3 to make a uniform solution, the mixture was allowed to stand. When no precipitate is obtained, after the solvent was removed, a less polar solvent was added to the residue and the mixture was allowed to stand again. Except for the case where the acid addition salt is oily or syrupy, the obtained solid material was collected by filtration and dried under reduced pressure.

[5] = Pharmacological effects of the metabolite compared with the (S)-ester
[6] = 1 month later, 40° C. and 75% relative humidity

## CCOC(=O)CCCN1CCC(O[C@@H](c2ccc(Cl)cc2)c2ccccn2)CC1.O=C(O)/C=C/C(=O)O [(S)-ester, ethyl (S)-4-[4-[(4-chlorophenyl)(2-pyridyl)methoxy]piperidino]butanoate fumaric acid salt]
[1]; 0.01 mg/kg
  Survival ratio (%): 0%
[1]; 0.02 mg/kg
  Survival ratio (%): 42.9%
[1]; 0.03 mg/kg
  Survival ratio (%): 62.5%
[1]; 0.06 mg/kg
  Survival ratio (%): 100%
[1]; 0.1 mg/kg
  Survival ratio (%): 100%
[1]
  ED50: 0.023 mg/kg
[1]; ratio of ED50 values
  potency relative to the (R)-ester: about 43 fold
[2]; 0.01 mg/kg
  Inhibitory ratio (%): 37.3%
[2]; 0.02 mg/kg
  Inhibitory ratio (%): 46.3%
[2]; 0.03 mg/kg
  Inhibitory ratio (%): 56.9%
[2]; 0.06 mg/kg
  Inhibitory ratio (%): 63.4%
[2]; 0.1 mg/kg
  Inhibitory ratio (%): 58.8%
[2]; compared at the dose which inhibits 50% of the maximum value (i.e., 35%)
  potency relative to the (R)-ester: ≥ 100 fold
[3]; [6]
  Amount of moisture absorption: 0.45%
  Content of (R)-isomer: 1.15%
  Content of analogue substance: 2.65%
[3]; Beginning
  Content of (R)-isomer: 0.87%
  Content of analogue substance: 1.72%
[3]; as shown in the stability test results (Table 4)
  hygroscopicity (in words): hygroscopic
[3]
  physicochemical stability (conclusion in words): physicochemically unstable

## CCOC(=O)CCCN1CCC(O[C@H](c2ccc(Cl)cc2)c2ccccn2)CC1.O=C(O)/C=C/C(=O)O [(R)-ester, ethyl (R)-4-[4-[(4-chlorophenyl) (2-pyridyl)methoxy]piperidino]butanoate fumaric acid salt]
[1]; 0.3 mg/kg
  Survival ratio (%): 0%
[1]; 0.6 mg/kg
  Survival ratio (%): 0%
[1]; 1.0 mg/kg
  Survival ratio (%): 50.0%
[1]; 3.0 mg/kg
  Survival ratio (%): 62.5%
[1]; 10.0 mg/kg
  Survival ratio (%): 100%
[1]
  ED50: 1 mg/kg
[2]; 0.3 mg/kg
  Inhibitory ratio (%): −3.1%
[2]; 1.0 mg/kg
  Inhibitory ratio (%): 13.6%
[2]; 3.0 mg/kg
  Inhibitory ratio (%): 45.8%
[2]; 10.0 mg/kg
  Inhibitory ratio (%): 59.5%

## O=C(O)CCCN1CCC(O[C@@H](c2ccc(Cl)cc2)c2ccccn2)CC1.O=C(O)c1ccccc1 [Benzoic acid salt, (S)-4-[4-[(4-chlorophenyl)(2-pyridyl)-methoxy]piperidino]butanoic acid monobenzoic acid salt]
[4]
  Characteristics of acid addition salt: non-hygroscopic crystals
[3]; [6]
  Amount of moisture absorption: 0.05%
  Content of (R)-isomer: 0.40%
  Content of analogue substance: 1.20%
[3]; Beginning
  Content of (R)-isomer: 0.37%
  Content of analogue substance: 1.20%
[3]
  physicochemical stability (conclusion in words): excellent physicochemical stabilities

## C[C@H](O)C(=O)O [L-Lactic acid]
[4]; acid molar ratio 1
  Characteristics of acid addition salt: Oily product

## O=C(O)CCCN1CCC(O[C@@H](c2ccc(Cl)cc2)c2ccccn2)CC1.O=S(=O)(O)c1ccccc1 [Benzenesulfonic acid salt, (S)-4-[4-[(4-chlorophenyl)(2-pyridyl)-methoxy]piperidino]butanoic acid monobenzenesulfonic acid salt]
[4]
  Characteristics of acid addition salt: non-hygroscopic crystals
[3]; [6]
  Amount of moisture absorption: 0.18%
  Content of (R)-isomer: 0.39%
  Content of analogue substance: 0.16%
[3]; Beginning
  Content of (R)-isomer: 0.37%
  Content of analogue substance: 0.15%
[3]
  physicochemical stability (conclusion in words): excellent physicochemical stabilities

## O=C(O)CCCN1CCC(O[C@@H](c2ccc(Cl)cc2)c2ccccn2)CC1 [Example 1, (S)-4-[4-[(4-chlorophenyl)(2-pyridyl)-methoxy]piperidino]butanoic acid]
[5]
  pharmacological effects compared with the (S)-ester: substantially shows the same pharmacological effects as the (S)-ester
